# Where two headings read alike, the source gives them in different places.
# Legend:
# Type in all cases: cell-based
# [1] = test system: fungi; test: Fungicidal activity of pasteurisation adjuncts at 50° C. versus 30° C. (MIC50); conditions: for Importance: rating of importance as pasteurisation adjunct
# Experimental: In the table the minimum inhibitory concentration (MIC) is given for each compound as well as the molecular weight (M.W.), the logPoct and a rating of its importance. […] The logPoct, that is the logarithm of the partition coefficient of the relevant compound in octanol and thus a measure of its […], was determined using […]™ software from the CHEMOFFICE ULRA ENHANCED 2000™ software package (version 5.5) that is commercially available from CambridgeSoft.
# [2] = test system: yeast Saccharomyces cerevisiae X2180-1B; test: Yeast growth in Ready to Drink tea (0.14% tea, pH 3.4) after 2 min at temperature, OD 600 nm at 14 days; conditions: RTD tea; for prevention of yeast growth by low levels of the adjunct: adjunct 0-12 ppm in combination with cinnamic acid 0-60 ppm
# [3] = Minimum inhibitory concentration (MIC) of antimicrobials / essential oils
# Text: The minimum inhibitory concentration (MIC) is given for each compound.
# In each case the respective minimum inhibitory concentration (MIC) and their specific preferred concentration is also given.
# [4] = minimum inhibitory concentration, fungicidal activity when heated to 50° C.
# [5] = 20° C., adjunct 0-12 ppm, cinnamic acid 0-60 ppm
# [6] = read-out: MIC50 in ppm (in brackets under the mM value)
# [7] = Table I, preferred essential oils
# [8] = Table II, particularly preferred essential oils
compound,measurement,setting,value
CCC(=O)OC/C=C(\C)CCC=C(C)C [Geranyl propionate],Importance,[1],High
CCCCCCCCCCCCO [Lauric alcohol],MIC50,[1]; [4],0.1 mM
same,MIC50 in ppm (in brackets under the mM value),[1]; [4],(18.6 ppm
same,Importance,[1],High
same,effect on yeast growth at low temperature,[2]; [5],little effect
same,prevention of yeast growth by low levels of the adjunct,[2],prevention of yeast growth
CC=CCCCCCCCC(=O)OC [Methyl-9-undecenoate],Importance,[1],High
CCCCCCCCCCCCCO [Tridecanol],Importance,[1],High
CCCCCCOC(=O)CCCCC [Hexyl hexanoate],Importance,[1],High
CCCCCCCCCCCC(=O)O [Lauric acid],Importance,[1],High
same,MIC50,[1]; [6],20 µg/mL
O=C(c1ccccc1)C(O)c1ccccc1 (centres unmarked) [Benzoin],Importance,[1],10
CCCCCCCCCC(=O)OC [Methyl decanoate],Importance,[1],High
C=CCOC(=O)CCC1CCCCC1 [Allyl cyclohexanepropionate],Importance,[1],High
CCCCCCCCCCC(=O)OC [Methyl undecanoate],Importance,[1],High
C=C(C)C1CC=C(C)C(OC(=O)CC)C1 (centres unmarked) [Carvyl propionate],MIC50,[1]; [4],5 mM
C=C(C)C1CCC(C)C(O)C1 (centres unmarked) [Dihydrocarveol],MIC (ppm),[3]; [7],540 ppm
CCCC1CCCC(=O)O1 (centres unmarked) [δ-Octalactone],MIC (ppm),[3]; [7],568 ppm
CC(=O)CC/C=C(\C)CCC=C(C)C [Geranyl acetone],Importance,[1],High
CC(C)=CCC/C(C)=C\COC(=O)C(C)C [Neryl isobutyrate],Importance,[1],High
CCCCCOC(=O)CCCCC [Amyl hexanoate],Importance,[1],High
CCCCCC(=O)OCCc1ccccc1 [Phenethyl hexanoate],Importance,[1],High
CCCCCCCCCCCC(=O)OC [Methyl laurate],Importance,[1],High
CCCCCCCCCCCCCC(=O)O [Myristic acid],Importance,[1],High
CCCCCCCCC(=O)OCC [Ethyl nonanoate],Importance,[1],High
CCCCCCCCCCC=CC=O [2-Tridecenal],Importance,[1],High
same,MIC50,[1]; [6],< 9.8 µg/mL
CCCCCCCCC(=O)OC [Methyl nonanoate],Importance,[1],High
CCCC(=O)OC/C=C(\C)CCC=C(C)C [Geranyl butyrate],Importance,[1],High
CC(C)c1ccc(CO)cc1 [Cumic alcohol],MIC (ppm),[3]; [7],450 ppm
same,MIC (ppm),[3]; [8],450 ppm
CC(C)C(=O)OCCOc1ccccc1 [2-Phenoxylethyl isobutyrate],Importance,[1],High
Tolualdehyde,MIC (ppm),[3]; [7],240 ppm
CCCCCCCCCCCCC(=O)O [Tridecanoic acid],Importance,[1],High
CCCCCCCC=CC(=O)OCC [Ethyl 2-decenoate],Importance,[1],High
CCCCCCCCCCOC(=O)CC [Decyl propionate],Importance,[1],High
CCCCCCCCCC(=O)OCC [Ethyl decanoate],Importance,[1],High
O=C(O)C=Cc1ccccc1 [Cinnamic acid],MIC,[3]; [7],148 µg/mL
same,MIC (ppm),[3]; [8],148 ppm
CCCCCCCCCCCCC=O [Tridecanal],Importance,[1],High
C=CC(C)(O)CCC=C(C)CCC=C(C)C (centres unmarked) [Nerolidol],Importance,[1],High
CCCCCCCOC(=O)CCC [Heptyl butyrate],Importance,[1],High
CCCCCCCCOC(=O)CCC [Octyl butyrate],Importance,[1],High
CCCCCCCCCCCC=O [Lauric aldehyde],MIC50,[1]; [4],0.2 mM
same,MIC50 in ppm (in brackets under the mM value),[1]; [4],(36 ppm
same,Importance,[1],High
CCCCCC(=O)OCCC(C)C [Isoamyl hexanoate],Importance,[1],High
CCCCCCCCCOC(C)=O [Nonyl acetate],Importance,[1],High
O=C1CCCCCCCCCCCCCCO1 [w-Pentadecalactone],MIC50,[1]; [4],60 mM
CC(=O)OC/C=C(\C)CCC=C(C)C [Geranyl acetate],Importance,[1],High
C=CCCCCCCCCC(=O)OCC [Ethyl 10-undecenoate],Importance,[1],High
"CC=CC=CC=O [Sorbic aldehyde (2,4-hexadienal)]",MIC (ppm),[3]; [7],86 ppm
methyl decenoate,fungicidal activity at 30° C.,[1],no fungicidal activity
same,fungicidal activity when heated to 50° C.,[1],significant fungicidal activity
w-6-Hexadecalactone,MIC50,[1]; [4],50 mM
CCCCCCC(=O)OCCCC [Butyl heptanoate],Importance,[1],High
CCCCCCCCCCOC(C)=O [Decyl acetate],fungicidal activity at 30° C.,[1],no fungicidal activity
same,fungicidal activity when heated to 50° C.,[1],significant fungicidal activity
same,Importance,[1],High
same,effect on yeast growth at low temperature,[2]; [5],little effect
same,effect on yeast growth at low temperature,"[2]; FIGS. 23, 24, adjunct alone 0-200 ppm, low temperature",little effect
same,prevention of yeast growth by low levels of the adjunct,[2],prevention of yeast growth
C/C(C=O)=C\c1ccccc1 [α-Methyl-trans-cinnamaldehyde],MIC (ppm),[3]; [7],58.4 ppm
C=C1CC/C=C(\C)CC[C@@H]2[C@@H]1CC2(C)C [β-Caryophylene],MIC50,[1]; [4],70 mM
CC(=O)OCc1ccc2c(c1)OCO2 [Piperonyl acetate],MIC,[3]; [7],242 µg/mL
same,MIC (ppm),[3]; [8],242 ppm
CC1CCC(C(C)C)C(O)C1 (centres unmarked) [Neomenthol],MIC (ppm),[3]; [7],156 ppm
CCCCCCCC1CCC(=O)O1 (centres unmarked) [γ-Undecalactone],MIC (ppm),[3]; [7],28 ppm
CCCCCCCCCC=CC=O [2-Dodecenal],Importance,[1],High
same,MIC50,[1]; [6],< 9 µg/mL
CCCCCC1CCC(=O)O1 (centres unmarked) [γ-Nonanoic lactone],MIC (ppm),[3]; [7],63 ppm
CC1(C)C2CC=C(CO)C1C2 (centres unmarked) [Myrtenol],MIC (ppm),[3]; [7],137 ppm
same,MIC (ppm),[3]; [8],137 ppm
CCCCCCCCCC(C)=O [2-Undecanone],Importance,[1],High

# Source: patent US6599548B2, “Ambient stable beverage” (priority 2000, dated 2003)
